# Measured values reported in patent US20050271643A1, “Bacterial strains, compositions including same and probiotic use thereof” (priority 2003, published 2005).
# Tested on: B. licheniformis PA
# Assay: Antibiogram by disc diffusion method
# Assay type: cell-based, Bacillus licheniformis
# Conditions: strain B. licheniformis PA
row,Molecule,Sensitivity or resistance of the strain to the antibiotic (in words)
1,C[C@H]1[C@H](NC(=O)/C(=N\OC(C)(C)C(=O)O)c2csc(N)n2)C(=O)N1S(=O)(=O)O [Aztreonam],resistant
2,CC1(C)S[C@@H]2[C@H](NC(=O)Cc3ccccc3)C(=O)N2[C@H]1C(=O)O [Benzylpenicillin],resistant
3,CC(C)(O/N=C(\C(=O)N[C@@H]1C(=O)N2C(C(=O)[O-])=C(C[n+]3ccccc3)CS[C@H]12)c1csc(N)n1)C(=O)O [Ceftazidim],resistant
4,Cc1onc(-c2ccccc2)c1C(=O)N[C@@H]1C(=O)N2[C@@H]1SC(C)(C)[C@@H]2C(=O)O [Oxacillin],resistant
5,Polymyxin E,resistant
